Data: ChEMBL document CHEMBL1201862, “PubChem BioAssay data set” (2004)
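Interpolation was linear, between the two tested concentrations surrounding the appropriate level; five concentrations were tested over 48 hours in 96-well plates. GI50: concentration for 50% inhibition of growth.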 The source made the active and inactive calls. No stated cut-off is given here; in the data, active = GI50 up to about 1.1 µM and inactive = higher.

Key:
Assay in all cases: NCI anticancer screen, dose series, 48 h
[1] = system: 786-0
[2] = system: A498
[3] = system: A549
[4] = system: ACHN
[5] = system: CAKI-1
[6] = system: DU-145
[7] = system: EKVX
[8] = system: HL-60
[9] = system: HOP-62
[10] = system: HT-29
[11] = system: Hs-578T
[12] = system: IGROV-1
[13] = system: KM12
[14] = system: M14
[15] = system: MCF7
[16] = system: MDA-MB-435
[17] = system: MDA-N
[18] = system: NCI-H226
[19] = system: NCI-H23
[20] = system: NCI-H460
[21] = system: OVCAR-3
[22] = system: OVCAR-4
[23] = system: OVCAR-5
[24] = system: OVCAR-8
[25] = system: RPMI-8226
[26] = system: RXF 393
[27] = system: SF-268
[28] = system: SF-295
[29] = system: SF-539
[30] = system: SK-MEL-28
[31] = system: SK-MEL-5
[32] = system: SK-OV-3
[33] = system: SNB-19
[34] = system: SR
[35] = system: TK-10
[36] = system: U-251
[37] = system: UACC-257
[38] = system: UACC-62
[39] = system: UO-31
[40] = system: CCRF-CEM
[41] = system: COLO 205
[42] = system: HCC 2998
[43] = system: HCT-15
[44] = system: HOP-92
[45] = system: K562
[46] = system: LOX IMVI
[47] = system: MDA-MB-231
[48] = system: MOLT-4
[49] = system: Malme-3M
[50] = system: PC-3
[51] = system: SN12C
[52] = system: SNB-75
[53] = system: SW-620
[54] = system: T47D
[55] = system: HCT-116
[56] = system: NCI/ADR-RES
[57] = system: SK-MEL-2

O=C1c2c(O)cccc2Cc2cccc(O)c21 [ANTHRALIN]
GI50 [1]: 0.386 µM (active) | GI50 [2]: 1.22 µM (inactive) | GI50 [3]: 0.334 µM (active) | GI50 [4]: 0.319 µM (active) | GI50 [5]: 0.337 µM (active) | GI50 [6]: 0.264 µM (active) | GI50 [7]: 0.2 µM (active) | GI50 [8]: 0.259 µM (active) | GI50 [9]: 0.347 µM (active) | GI50 [10]: 0.322 µM (active) | GI50 [11]: 0.29 µM (active) | GI50 [12]: 0.375 µM (active) | GI50 [13]: 0.355 µM (active) | GI50 [14]: 0.256 µM (active) | GI50 [15]: 0.255 µM (active) | GI50 [16]: 0.348 µM (active) | GI50 [17]: 0.321 µM (active) | GI50 [18]: 0.314 µM (active) | GI50 [19]: 0.327 µM (active) | GI50 [20]: 0.334 µM (active) | GI50 [21]: 0.382 µM (active) | GI50 [22]: 0.447 µM (active) | GI50 [23]: 0.57 µM (active) | GI50 [24]: 0.321 µM (active) | GI50 [25]: 0.321 µM (active) | GI50 [26]: 0.32 µM (active) | GI50 [27]: 0.376 µM (active) | GI50 [28]: 0.269 µM (active) | GI50 [29]: 0.273 µM (active) | GI50 [30]: 0.783 µM (active) | GI50 [31]: 0.178 µM (active) | GI50 [32]: 0.351 µM (active) | GI50 [33]: 0.435 µM (active) | GI50 [34]: 0.31 µM (active) | GI50 [35]: 0.684 µM (active) | GI50 [36]: 0.313 µM (active) | GI50 [37]: 0.216 µM (active) | GI50 [38]: 0.415 µM (active) | GI50 [39]: 0.3 µM (active)

COC(=O)/C(=C\C(=O)c1ccc(Br)cc1)NN=C(c1ccccc1)c1ccccc1
GI50 [1]: > 10 µM (inactive) | GI50 [3]: > 10 µM (inactive) | GI50 [5]: > 10 µM (inactive) | GI50 [40]: > 10 µM (inactive) | GI50 [41]: > 10 µM (inactive) | GI50 [6]: > 10 µM (inactive) | GI50 [7]: > 10 µM (inactive) | GI50 [42]: > 10 µM (inactive) | GI50 [43]: > 10 µM | GI50 [8]: > 10 µM (inactive) | GI50 [9]: > 10 µM (inactive) | GI50 [44]: > 10 µM (inactive) | GI50 [10]: > 10 µM (inactive) | GI50 [12]: > 10 µM (inactive) | GI50 [45]: > 10 µM (inactive) | GI50 [13]: > 10 µM (inactive) | GI50 [46]: > 10 µM (inactive) | GI50 [14]: > 10 µM (inactive) | GI50 [15]: > 10 µM (inactive) | GI50 [47]: > 10 µM (inactive) | GI50 [16]: > 10 µM (inactive) | GI50 [17]: > 10 µM (inactive) | GI50 [48]: > 10 µM (inactive) | GI50 [49]: > 10 µM (inactive) | GI50 [19]: > 10 µM (inactive) | GI50 [22]: > 10 µM (inactive) | GI50 [24]: > 10 µM (inactive) | GI50 [50]: > 10 µM (inactive) | GI50 [25]: > 10 µM (inactive) | GI50 [26]: > 10 µM (inactive) | GI50 [27]: > 10 µM (inactive) | GI50 [28]: > 10 µM (inactive) | GI50 [30]: > 10 µM (inactive) | GI50 [31]: > 10 µM (inactive) | GI50 [32]: > 10 µM (inactive) | GI50 [51]: > 10 µM (inactive) | GI50 [52]: > 10 µM (inactive) | GI50 [34]: > 10 µM (inactive) | GI50 [53]: > 10 µM (inactive) | GI50 [54]: > 10 µM (inactive) | GI50 [35]: > 10 µM (inactive) | GI50 [37]: > 10 µM (inactive) | GI50 [38]: > 10 µM (inactive)

NS(=O)(=O)c1ccc(/C=C/c2ccc(O)cc2)cc1
GI50 [1]: 10.7 µM (inactive) | GI50 [2]: 41.5 µM (inactive) | GI50 [41]: 19.9 µM (inactive) | GI50 [6]: 16.2 µM (inactive) | GI50 [7]: 22.7 µM (inactive) | GI50 [42]: 19.7 µM (inactive) | GI50 [55]: 23 µM (inactive) | GI50 [9]: 31.5 µM (inactive) | GI50 [44]: 10.7 µM (inactive) | GI50 [14]: 24.4 µM (inactive) | GI50 [15]: 17.5 µM (inactive) | GI50 [47]: 14.8 µM (inactive) | GI50 [17]: 33 µM (inactive) | GI50 [49]: 26.9 µM (inactive) | GI50 [20]: 18.7 µM (inactive) | GI50 [56]: 14 µM (inactive) | GI50 [21]: 19 µM (inactive) | GI50 [23]: 40.6 µM (inactive) | GI50 [50]: 18.8 µM (inactive) | GI50 [26]: 51.6 µM (inactive) | GI50 [28]: 21.3 µM (inactive) | GI50 [30]: 27.5 µM (inactive) | GI50 [57]: 25.9 µM (inactive) | GI50 [31]: 11.4 µM (inactive) | GI50 [32]: 23.9 µM (inactive) | GI50 [51]: 18.9 µM (inactive) | GI50 [33]: 44.4 µM (inactive) | GI50 [52]: 15.6 µM (inactive) | GI50 [53]: 25.6 µM (inactive) | GI50 [54]: 21.1 µM (inactive) | GI50 [35]: 43.8 µM (inactive) | GI50 [37]: 30.4 µM (inactive) | GI50 [39]: 8.73 µM (inactive)
